Converted amounts (≈) assume the structure as drawn.
Legend:
[1] = molecular target: T1, C-C chemokine receptor type 9 (Homo sapiens, UniProt P51686)
T1 sequence (P51686 whole entry): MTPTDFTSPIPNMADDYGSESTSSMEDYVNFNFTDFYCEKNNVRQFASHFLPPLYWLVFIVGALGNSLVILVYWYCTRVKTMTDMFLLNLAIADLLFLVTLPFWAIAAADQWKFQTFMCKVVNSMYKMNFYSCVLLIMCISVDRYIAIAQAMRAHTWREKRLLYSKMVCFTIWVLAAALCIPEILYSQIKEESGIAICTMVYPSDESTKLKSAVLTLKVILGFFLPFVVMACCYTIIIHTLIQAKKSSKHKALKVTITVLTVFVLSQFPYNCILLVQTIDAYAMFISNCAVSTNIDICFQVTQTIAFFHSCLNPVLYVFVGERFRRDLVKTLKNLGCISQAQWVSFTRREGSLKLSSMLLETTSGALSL
Description: Antagonist activity at CCR9 receptor (unknown origin) assessed as inhibition of TECK-induced calcium mobilization incubated for 10 mins prior to TECK induction

[2] = Solubility of the compound at pH 7.4; type: physicochemical; settings: buffer
[3] = Solubility of the compound at pH 9; type: physicochemical; settings: buffer
[4] = Plasma protein binding in human; type: ADME, cell-free; settings: read-out: PPB (converted)
[5] = Clearance in mouse liver microsomes; type: ADME; settings: read-out: CLH
Mus musculus = experiment: Dose normalized AUC in iv dosed mouse; type: ADME, organism-based; settings: in vivo
[6] = Clearance in iv dosed mouse; type: ADME, organism-based; settings: in vivo
[7] = Terminal half life in iv and po dosed mouse; type: ADME, organism-based; settings: in vivo, read-out: beta t1/2 (converted)
[8] = Volume of distribution at steady state in iv dosed mouse; type: ADME, organism-based; settings: in vivo, read-out: Vdss
[9] = Oral bioavailability in mouse; type: ADME, organism-based; settings: in vivo
[10] = Lipophilicity, log D of the compound; type: physicochemical; settings: octanol/water

`CC(C)(C)c1ccc(S(=O)(=O)Nc2ccc(Cl)cc2-c2ccccn2)cc1` gave an IC50 [1] of over 10000 nM.

Work on `COc1ccnc(-c2cc(Cl)ccc2NS(=O)(=O)c2ccc(C(C)(C)C)cc2)c1` yielded an IC50 [1] of 2500 nM.

`COc1cccnc1-c1cc(Cl)ccc1NS(=O)(=O)c1ccc(C(C)(C)C)cc1` showed an IC50 [1] of 958 nM.

For `CC(C)(C)c1ccc(S(=O)(=O)Nc2ccc(Cl)cc2-c2ncccc2O)cc1`, the IC50 [1] was 29 nM.

In the case of `CC(C)(C)c1ccc(S(=O)(=O)Nc2ccc(Cl)cc2-c2ncccc2N)cc1`, the IC50 [1] is reported as 95 nM.

`CC(C)(C)c1ccc(S(=O)(=O)Nc2ccc(Cl)cc2-c2ncccc2CO)cc1` showed an IC50 [1] of 89 nM.

Molecule `CC(C)(C)c1ccc(S(=O)(=O)Nc2ccc(Cl)cc2-c2ncccc2CN)cc1` has an IC50 [1] of 3160 nM.

`COCc1cccnc1-c1cc(Cl)ccc1NS(=O)(=O)c1ccc(C(C)(C)C)cc1` gave an IC50 [1] of 3480 nM.

With `CC(C)(C)c1ccc(S(=O)(=O)Nc2ccc(Cl)cc2-c2c(O)ccc[n+]2[O-])cc1` the IC50 [1] was 491 nM.

`CC(C)(C)c1ccc(S(=O)(=O)Nc2ccc(Cl)cc2-c2nccc(C(N)=O)c2O)cc1` showed an IC50 [1] of 52 nM.

In the case of `CC(C)(C)c1ccc(S(=O)(=O)Nc2ccc(Cl)cc2-c2nccc(CO)c2O)cc1`, the IC50 [1] is reported as 8.7 nM.

For `CC(C)(C)c1ccc(S(=O)(=O)Nc2ccc(Cl)cc2-c2ncccn2)cc1`, the IC50 [1] was 0.3 nM.

Molecule `CC(C)(C)c1ccc(S(=O)(=O)Nc2ccc(Cl)cc2-c2ncncc2N)cc1` has an IC50 [1] of 3.2 nM.

Molecule `CC(C)(C)c1ccc(S(=O)(=O)Nc2ccc(Cl)cc2-c2nccnc2N)cc1` has an IC50 [1] of 3.2 nM.

With `CC(C)(C)c1ccc(S(=O)(=O)Nc2ccc(Cl)cc2-c2nnccc2N)cc1` the IC50 [1] was 3.8 nM.

Molecule `CC(C)(C)c1ccc(S(=O)(=O)Nc2ccc(Cl)cc2-c2ncncc2O)cc1` has an IC50 [1] of 11 nM.

Molecule `CC(C)(C)c1ccc(S(=O)(=O)Nc2ccc(Cl)cc2-c2nc(N)ncc2O)cc1` has an IC50 [1] of 4 nM.

Work on `CNc1ncc(O)c(-c2cc(Cl)ccc2NS(=O)(=O)c2ccc(C(C)(C)C)cc2)n1` yielded an IC50 [1] of 27 nM.

Molecule `CC(C)(C)c1ccc(S(=O)(=O)Nc2ccc(Cl)cc2-c2nc(NCCO)ncc2O)cc1` has an IC50 [1] of 214 nM.

Work on `CC(C)(C)c1ccc(S(=O)(=O)Nc2ccc(Cl)cc2-c2ncnc(N)c2O)cc1` yielded an IC50 [1] of 14 nM.

Molecule `CN(C)c1ncnc(-c2cc(Cl)ccc2NS(=O)(=O)c2ccc(C(C)(C)C)cc2)c1O` has an IC50 [1] of 9 nM.

In the case of `CC(C)(C)c1ccc(S(=O)(=O)Nc2ccc(Cl)cc2-c2nncc(N3CCOCC3)c2N)cc1`, the IC50 [1] is reported as 26 nM.

For `CC(C)(C)c1ccc(S(=O)(=O)Nc2ccc(Cl)cc2-c2ncnc(CO)c2O)cc1`, the IC50 [1] was 11 nM.

`CCc1ncnc(-c2cc(Cl)ccc2NS(=O)(=O)c2ccc(C(C)(C)C)cc2)c1O` gave an IC50 [1] of 6 nM.

Work on `CNc1nccnc1-c1cc(Cl)ccc1NS(=O)(=O)c1ccc(C(C)(C)C)cc1` yielded an IC50 [1] of 25 nM.

With `CCNc1nccnc1-c1cc(Cl)ccc1NS(=O)(=O)c1ccc(C(C)(C)C)cc1` the IC50 [1] was 421 nM.

Work on `CC(C)(C)c1ccc(S(=O)(=O)Nc2ccc(Cl)cc2-c2nccnc2NCCO)cc1` yielded a solubility [2] of 240 µg/mL (≈ 521 µM), a solubility [3] of 1100 µg/mL (≈ 2390 µM) and a fraction unbound [4] of 0.016. It also gave a CLint scaled [5] of 49 mL/min/kg, an AUC/dose (Mus musculus) of 0.65 µg·h/mL/mg/kg and a clearance [6] of 26 mL/min/kg. It also gave a half-life [7] of 1.2 h, a Vd [8] of 1.1 L/kg and a bioavailability [9] of 38%. It also gave an IC50 [1] of 34 nM.

Molecule `CC(C)(C)c1ccc(S(=O)(=O)Nc2ccc(Cl)cc2-c2nccnc2NCCCO)cc1` has an IC50 [1] of 614 nM.

Molecule `CN(C)CCNc1nccnc1-c1cc(Cl)ccc1NS(=O)(=O)c1ccc(C(C)(C)C)cc1` has an IC50 [1] of 3600 nM.

`CC(C)(C)c1ccc(S(=O)(=O)Nc2ccc(Cl)cc2-c2nccnc2NCC(=O)O)cc1` showed an IC50 [1] of 812 nM.

In the case of `Cc1cnc(-c2cc(Cl)ccc2NS(=O)(=O)c2ccc(C(C)(C)C)cc2)c(NCCO)n1`, the IC50 [1] is reported as 268 nM.

`CNc1cnc(-c2cc(Cl)ccc2NS(=O)(=O)c2ccc(C(C)(C)C)cc2)c(NCCO)n1` showed an IC50 [1] of 1010 nM.

`CC(C)(C)c1ccc(S(=O)(=O)Nc2ccc(Cl)cc2-c2nc(Cl)cnc2NCCO)cc1` gave an IC50 [1] of 715 nM.

Work on `CC(C)(C)c1ccc(S(=O)(=O)Nc2ccc(Cl)cc2C(=O)c2cc[n+]([O-])cc2)cc1` [VERCIRNON] yielded a solubility [2] of 1.2 µg/mL (≈ 2.7 µM), a solubility [3] of 51 µg/mL (≈ 115 µM) and a fraction unbound [4] of 0.009. The CLint scaled [5] was 147 mL/min/kg, the AUC/dose (Mus musculus) was 0.56 µg·h/mL/mg/kg and the clearance [6] was 33 mL/min/kg. For the same molecule, the half-life [7] was 1.3 h, the Vd [8] was 0.83 L/kg and the bioavailability [9] was 10%. For the same molecule, the logD [10] was 3.7.

Source: ChEMBL document CHEMBL3603812, “Biarylsulfonamide CCR9 inhibitors for inflammatory bowel disease” (Bioorg Med Chem Lett, 2015)
